Assay [1] deals with rat model with bladder pain. Put plainly: Rat model with bladder pain (cyclophosphamide pre-treated, bladder expansion). It is filed as in vivo. As to the method:
Action of Compound with Respect to Rat Model with Bladder Pain
The analgesic action of the compound against bladder pain was examined using a pathological model. Cyclophosphamide (150 mg/kg) was administered intraperitoneally, and after two days, physiological saline was injected under a non-restraint condition, at a rate of 45 ml/h via a cannula inserted transurethrally into the bladder, thereby rapidly expanding the bladder. Due to rapid expansion of the bladder, amplification of electromyogram spikes in external oblique abdominal muscle accompanying behavior relating to pain was confirmed. The injection amount at this point in time can be taken as a threshold of bladder pain, which makes it possible to evaluate drug efficacy with respect to the threshold of bladder pain. […] For the rats pre-treated with cyclophosphamide, the threshold of bladder pain before and after the administration of a test compound was measured, and the change in amount (Δ ml) was investigated. In order to obtain a value before administration, bladder expansion was performed until a stabilized threshold of bladder pain was consecutively obtained three times, and the average of the threshold of bladder pain of the final three times was taken as a measured value. […] The average of the threshold of bladder pain consecutively measured three times was taken as a value measured after administration.

In assay [2] the test system is rat model with testis pain. Put plainly: Rat model with testis pain (acetic acid into testes, writhing). It is filed as in vivo. The protocol:
Action of Compound with Respect to Rat Model with Testis Pain
The analgesic action of the compound against testis pain was examined using a pathological model. If 1% acetic acid is administered at 1 ml/kg to right and left testes of a rat by using an injection needle, pain behavior (writhing) accompanied by testis pain is observed, which makes it possible to evaluate drug efficacy on the pain behavior. […] The rats were transferred to a cylindrical acryl cage having a diameter of 30 cm and a height of 50 cm, and the number of times of pain behavior shown for 5 minutes to 15 minutes after the acetic acid administration was measured.

Another assay deals with T1, FAAH (Homo sapiens, UniProt O00519).
T1 construct: Human bladder epithelial carcinoma-derived cell line, 5637 cells (HTB-9; host or cells: 5637 human bladder epithelial carcinoma cells
T1 sequence (O00519 1-579): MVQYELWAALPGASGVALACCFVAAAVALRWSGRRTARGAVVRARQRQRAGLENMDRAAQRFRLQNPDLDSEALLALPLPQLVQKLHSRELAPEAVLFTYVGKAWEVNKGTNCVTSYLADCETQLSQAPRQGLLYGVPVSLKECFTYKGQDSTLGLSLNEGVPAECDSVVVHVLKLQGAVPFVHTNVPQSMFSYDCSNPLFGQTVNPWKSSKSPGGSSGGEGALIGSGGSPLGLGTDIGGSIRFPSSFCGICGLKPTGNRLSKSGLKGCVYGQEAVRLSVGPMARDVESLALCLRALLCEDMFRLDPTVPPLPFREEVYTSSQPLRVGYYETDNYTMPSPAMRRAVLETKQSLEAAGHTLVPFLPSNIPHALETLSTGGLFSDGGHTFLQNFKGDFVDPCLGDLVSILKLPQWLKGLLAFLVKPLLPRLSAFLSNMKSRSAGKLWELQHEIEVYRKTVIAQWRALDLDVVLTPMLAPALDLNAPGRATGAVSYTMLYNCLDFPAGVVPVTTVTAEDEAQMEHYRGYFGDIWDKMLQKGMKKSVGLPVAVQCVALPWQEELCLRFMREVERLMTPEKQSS
Put plainly: Measurement of IC50 value of substance inhibiting FAAH activity using human bladder epithelial carcinoma-derived cell line 5637. It is filed as cell-based. As to the method: Screening of Substance Inhibiting FAAH Activity by Using Human Bladder Epithelial Carcinoma-Derived Cell Line
(1) Screening of Substance Inhibiting FAAH Activity
Human bladder epithelial carcinoma-derived cell line, 5637 cells (HTB-9; ATCC) were seeded in a 48-well cell culture plate in an amount of 1×10^5 cells/well by using RPMI 1640 medium (Invitrogen) containing 10% fetal bovine serum (HyClone), followed by incubation at 37° C. for 12 hours or longer, and then the cells in each well were washed with 400 μl of a buffer (Hank's Balanced Salt Solution, 20 mM Hepes-NaOH (pH 7.4)). A test substance dissolved in DMSO was added to a substrate solution (the above buffer containing 3 μCi/ml radiolabeled anandamide (anandamide [ethanolamine 1-^3H]) and 10 μM anandamide) so as to have a concentration from 0.003 nM to 30 nM, and as a control, DMSO was added alone. 100 μl/well of the substrate solution was added to the cells, followed by incubation in a CO2 incubator at 37° C. for 30 minutes. […] A substance decreasing a measured value compared to the control was selected as a substance inhibiting FAAH activity. […]

As for `O=C(Nc1ccccc1)C1CCN(C(=O)Oc2cccnc2)CC1` [Compound L, pyridin-3-yl 4-(anilinocarbonyl)piperidine-1-carboxylate], the “Threshold of bladder pain (amount of physiological saline injected), compound-administered group” value in assay [1] (male SD rats, 3 mg/5 ml/kg oral, 120 minutes before measurement, change before vs after administration) was 0.173 Δ ml. The “Number of times of pain behavior, compound-administered group” value in assay [2] (male Wistar rats, 3 mg/5 ml/kg oral, 120 minutes before measurement, counted 5 to 15 minutes after acetic acid) worked out at 6.7.

With `NC(=O)c1cncc(OC(=O)N2CCC(CCc3cccc(C(=O)N4CCCCC4)c3)CC2)c1` [Compound I, 5-(aminocarbonyl)pyridin-3-yl 4-{2-[3-(piperidin-1-ylcarbonyl)phenyl]ethyl}piperidine-1-carboxylate], it took 160 pM to reach half-maximal inhibition against FAAH (IC50).

As for `NC(=O)c1cncc(OC(=O)N2CCC(CCc3cccc(C(=O)N4CCCC4)c3)CC2)c1` [Compound J, 5-(aminocarbonyl)pyridin-3-yl 4-{2-[3-(pyrrolidin-1-ylcarbonyl)phenyl]ethyl}piperidine-1-carboxylate], the “Threshold of bladder pain (amount of physiological saline injected), compound-administered group” value in assay [1] (rat, in vivo, po) is 0.150 Δ ml. Moreover, the “Number of times of pain behavior, compound-administered group” value in assay [2] (rat, in vivo, po) is listed as 9.5.

For orientation: IC50 means the concentration that gives 50% inhibition. Read a low IC50 as greater potency.

Source of the values: patent US20130030006A1, “AGENT FOR PREVENTING OR TREATING DISEASES ACCOMPANIED BY URINARY PAIN” (priority 2010, published 2013).
